What was measured:
[1] = tested on: Male Sprague-Dawley rats; experiment: Vogel conflict procedure; format: in vivo; conditions: i.p. 30 minutes prior; KRM-II-81 significant at 10 mg/kg; chlordiazepoxide 20 mg/kg
Procedure: FIG. 10 is a graph of the concentration of KRM-II-81 versus percent of control for KRM-II-81 analyzed in the Vogel conflict procedure. After a baseline was established using a vehicle (1% 2-hydroxyethyl cellulose), male Sprague-Dawley rats (n=6-8) were dosed i.p. with either KRM-II-81 (3, 10, 30, or 60 mg/kg) or chlordiazepoxide (20 mg/kg) 30 minutes prior to testing. Results were analyzed using ANOVA (Dunnett's test: *P<0.05; Student t-test: **P<0.05).
Subjects are withheld from water prior to testing. Once given water during testing, they will either be unpunished, where they are free to drink without consequence, or punished, where a small electrical shock is applied after every 20th lick. In vehicle punished, is it is expected that the rats hesitate from drinking due to the anxiousness of being shocked. When given an anxiolytic, the […] will continue to drink water despite the electrical shock.
Experiments were conducted as described in the protocol of Alt et al. (Neuropharmacology 2007, 52, 1482-1487). […]
Apparatus. […] All events were controlled and licking data was recorded by a Compaq computer running MED-PC Version IV (Med Associates Inc., Georgia, Vt., USA).
Sipper tube training. […] The six minutes was broken into two components, the first three minutes was recorded as the unpunished component and the second three minutes were recorded as the punished component. […]

[2] = tested on: Male Sprague-Dawley rats; experiment: scMET-induced seizure protection, rats; format: in vivo; conditions: i.p. 30 minutes prior; pentylenetetrazole 35 mg/kg
Procedure: A 35 mg/kg subcutaneous dose of pentylenetetrazole was given and the percent outcome of seizure was recorded. Results were analyzed using ANOVA (Dunnett's test: *P<0.05).
Test subjects were given a test compound, followed by a 35 mg/kg dose of MET and observed for convulsions (FIG. 7).
Results were analyzed using ANOVA (Dunnett's test: *P<0.05).

[3] = target: CYP3A4 (Homo sapiens, UniProt P08684); experiment: CYP substrate assessment, CYP3A4
Chain of CYP3A4 (P08684 whole entry): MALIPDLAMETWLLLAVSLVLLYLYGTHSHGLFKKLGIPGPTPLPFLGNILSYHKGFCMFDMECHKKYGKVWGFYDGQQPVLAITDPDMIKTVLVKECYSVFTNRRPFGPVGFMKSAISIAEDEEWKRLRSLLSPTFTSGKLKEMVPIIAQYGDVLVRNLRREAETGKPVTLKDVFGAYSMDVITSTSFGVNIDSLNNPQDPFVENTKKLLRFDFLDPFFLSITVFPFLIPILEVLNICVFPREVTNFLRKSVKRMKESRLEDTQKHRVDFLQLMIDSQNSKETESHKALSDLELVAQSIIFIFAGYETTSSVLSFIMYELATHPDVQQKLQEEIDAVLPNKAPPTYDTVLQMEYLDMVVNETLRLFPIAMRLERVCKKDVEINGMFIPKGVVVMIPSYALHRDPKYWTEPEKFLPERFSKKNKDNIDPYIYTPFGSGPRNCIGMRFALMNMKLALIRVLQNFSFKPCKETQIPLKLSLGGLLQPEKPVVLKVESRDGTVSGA

C#Cc1ccc2c(c1)C(c1ccccn1)=NCc1c(-c3cnco3)ncn1-2 [KRM-II-81, 5-(8-Ethynyl-6-(pyridin-2-yl)-4H-benzo[f]imidazo[1,5-a][1,4]diazepin-3-yl)oxazole]
punished licking compared to control [1]: significant increase in punished licking
dose achieving significant protection against scMET seizures [2]: 30 mg/kg
substrate of CYP3A4 [3]: not found to be a substrate

Reference: patent US10259815B2, “Gabaergic ligands and their uses” (UWM Research Foundation, Inc., priority 2015, dated 2019)
